Laboratory results taken from US20140296968A1, “IMPLANTABLE VASCULAR STENT” (Translumina GmbH, priority 2011, published 2014).

Test: release of rapamycin in vivo

duration of the release of rapamycin: 4 to 6 weeks
SMILES: CO[C@H]1C[C@@H]2CC[C@@H](C)[C@@](O)(O2)C(=O)C(=O)N2CCCC[C@H]2C(=O)O[C@H]([C@H](C)C[C@@H]2CC[C@@H](O)[C@H](OC)C2)CC(=O)[C@H](C)/C=C(\C)[C@@H](O)[C@@H](OC)C(=O)[C@H](C)C[C@H](C)/C=C/C=C/C=C/1C [rapamycin]
